The values below come from publication PMC8316002, “Inhibition of Escherichia coli Lipoprotein Diacylglyceryl Transferase Is Insensitive to Resistance Caused by Deletion of Braun’s Lipoprotein” (Journal of Bacteriology, 2021).

In brackets after ≈: the same amount, converted by molar mass. Where two headings read alike, the source gives them in different places. Where a SMILES comes first, the peptide text is derived from it. Bridges are numbered along the chain shown (N, C = ends). [ ]: non-standard residue; d: D form. Bip = N[C@@H](Cc1ccc(-c2ccccc2)cc1)C(=O)O; NMeF = CN[C@@H](Cc1ccccc1)C(=O)O Where only a bound is given, the exact number is not on record here.

Assay in all cases: microbe, parasite or virus in culture
One test relates to MG1655 + EDTA. Format: cell-based, E. coli. As to conditions: average of at least four independent experiments in duplicates. The protocol: (§1) Unless stated otherwise, E. coli cells were grown in Luria-Bertani (LB) medium (0.5% yeast extract, 1% tryptone, 0.5% NaCl) at 37°C. Where indicated, kanamycin (Kan) was added to culture media at a 50-μg/ml final concentration. MIC assays were performed based on Clinical and Laboratory Standards Institute (CLSI) guidelines. For in vitro growth curves, overnight cultures of WT CFT073, CFT073 Δlgt, and CFT073 Δlgt complemented with lgt from E. coli (lgt^Ec) or P. aeruginosa (lgt^Pa) were grown to mid-exponential phase (optical density at 600 nm [OD600] of 0.6) and then diluted to an OD600 of 0.1 to initiate growth curves. At various times, culture aliquots were diluted and plated in dilutions on LB+Kan agar, and CFU were enumerated in duplicates. Growth of MG1655 inducible deletion strains was measured by culturing in the presence of 2-fold dilutions of arabinose (starting arabinose concentrations for CFT073 and MG1655 inducible deletion strains were 4% and 0.8%, respectively). While […] was sufficient for WT growth of MG1655 Δlgt, 4% arabinose was used for CFT073 Δlgt based on comparing its growth to that of WT CFT073 as measured by CFU. OD600 growth measurements were performed using an EnVision 2101 multilabel reader plate reader (PerkinElmer) linked with Echo liquid handler (Labcyte). For time-kill experiments, bacteria were harvested in mid-exponential phase and treated with 12.5 μM G2824, 3.2 μM globomycin, and 1.6 μM vancomycin. CFU were enumerated at various times posttreatment. Bacterial culture medium containing 2% arabinose was used to induce lpp or lppΔK expression from pBad24 plasmids. Bacterial viability at different time points during the treatment was measured by enumerating CFU. Serum killing assays were carried out as previously described ([17]).

The next test has as its system CFT073 imp4213. The test is classed as cell-based, E. coli. To be noted: average of at least four independent experiments in duplicates. As to the method: as §1
The next test relates to CFT073 + EDTA. The test is classed as cell-based, E. coli. As to conditions: average of at least four independent experiments in duplicates. As to the method: as §1
Another test relates to CFT073. The test is classed as cell-based, E. coli. To be noted: average of at least four independent experiments in duplicates. The protocol:
as §1

The next test has as its system CFT073 imp4213 Δlpp. Format: cell-based, E. coli. The protocol:
as §1

For a further test, the system named is CFT073 Δlpp + EDTA. Format: cell-based, E. coli. The protocol:
as §1

The subject of a further test is MG1655. The test is classed as cell-based, E. coli. To be noted: average of at least four independent experiments in duplicates. The protocol: as §1
For another test, the system named is CFT073 Δlpp. Format: cell-based, E. coli. As to the method: as §1
Another test relates to MG1655 Δlpp + EDTA. The test is classed as cell-based, E. coli. The protocol:
as §1

The test system of the next test is MG1655 Δlpp. Format: cell-based, E. coli. The protocol: as §1
The next test concerns P. aeruginosa PA14. Format: cell-based. As to conditions: average of two independent experiments in duplicates. As to the method:
as §1

The subject of test [1] is A. baumannii 19606 + EDTA. Format: cell-based. As to conditions: average of two independent experiments in duplicates. The protocol: as §1
In another test the test system is S. aureus USA300. Format: cell-based. As to the method:
as §1

The test system of a further test is A. baumannii 19606. Format: cell-based. To be noted: average of two independent experiments in duplicates. As to the method: as §1
The next test deals with PA14 + EDTA. The test is classed as cell-based, P. aeruginosa. To be noted: average of two independent experiments in duplicates. The protocol:
as §1

[2] abbreviates: CFT073 imp4213 Δlpp, average of at least four independent experiments in duplicates.
The mark [3] stands for this setting: CFT073 Δlpp + EDTA, average of at least four independent experiments in duplicates.
Where [4] appears, read: CFT073 Δlpp, average of at least four independent experiments in duplicates.
The mark [5] stands for this setting: MG1655 Δlpp + EDTA, average of at least four independent experiments in duplicates.
[6] abbreviates: MG1655 Δlpp, average of at least four independent experiments in duplicates.
[7] abbreviates: S. aureus USA300, average of two independent experiments in duplicates.
Setting [8] is: Escherichia coli, read-out: MIC.

For `CN1C(=O)[C@H](Cc2ccc(-c3ccccc3)cc2)NC(=O)CNC(=O)[C@H](CC(=O)O)NC(=O)[C@@H](Cc2ccccc2)NC(=O)CSC[C@@H](C(=O)NCC(=O)N[C@@H](CCCCN)C(=O)N[C@@H](CCCCN)C(N)=O)NC(=O)[C@H](CCCNC(=N)N)NC(=O)[C@H](CO)NC(=O)[C@H](Cc2ccc(-c3ccccc3)cc2)NC(=O)[C@@H]1Cc1ccccc1` [G2824] ({CH2CO}-[dF]DG[Bip][NMeF][Bip]SRCGKK-NH2; thioether N-9), the MIC in the test on MG1655 + EDTA is 3.1 µM (≈ 5.1 µg/mL); in the test with CFT073 imp4213 it was 8.4 µM (≈ 13.8 µg/mL); in the test with CFT073 + EDTA it was 3.1 µM (≈ 5.1 µg/mL); with CFT073, about 100 µM (≈ 164 µg/mL); in the test on CFT073 (read-out: MIC), 92 µM (≈ 151 µg/mL); in the test on CFT073 imp4213 Δlpp (setting [2]), 8.9 µM (≈ 14.6 µg/mL). Further, the MIC in the test on CFT073 Δlpp + EDTA (setting [3]) was 2.3 µM; in the test with MG1655, about 100 µM (≈ 164 µg/mL); in the test with MG1655 (read-out: MIC), 93.8 µM (≈ 154 µg/mL); in the test with CFT073 Δlpp (setting [4]), 62.5 µM (≈ 103 µg/mL); in the test with MG1655 Δlpp + EDTA (setting [5]) it was 3.1 µM; with MG1655 Δlpp (setting [6]) it was 62.5 µM (≈ 103 µg/mL). In addition, the MIC was over 100 µM against P. aeruginosa PA14; 6.3 µM (≈ 10.4 µg/mL) in [1]; over 100 µM in the test on S. aureus USA300 (setting [7]); 37.5 µM (≈ 61.6 µg/mL) against A. baumannii 19606; 6.3 µM (≈ 10.4 µg/mL) in the test on PA14 + EDTA.

As for `CN1C(=O)[C@H](Cc2ccc(-c3ccccc3)cc2)NC(=O)CNC(=O)[C@H](CCCNC(=N)N)NC(=O)[C@@H](Cc2ccccc2)NC(=O)CSC[C@@H](C(=O)NCC(N)=O)NC(=O)[C@H](CCCNC(=N)N)NC(=O)[C@H](CO)NC(=O)[C@H](Cc2ccc(-c3ccccc3)cc2)NC(=O)[C@@H]1Cc1ccccc1` [G9066] ({CH2CO}-[dF]RG[Bip][NMeF][Bip]SRCG-NH2; thioether N-9), the MIC was 3.1 µM (≈ 4.43 µg/mL) in the test on MG1655 + EDTA; 5.7 µM (≈ 8.14 µg/mL) with CFT073 imp4213; 3.1 µM (≈ 4.43 µg/mL) in the test on CFT073 + EDTA; about 100 µM (≈ 143 µg/mL) in the test with CFT073; 6.8 µM (≈ 9.72 µg/mL) in the test on CFT073 imp4213 Δlpp (setting [2]); 1.6 µM in the test with CFT073 Δlpp + EDTA (setting [3]). Besides, the MIC against MG1655 is about 100 µM (≈ 143 µg/mL); with MG1655 (read-out: MIC), over 100 µM; against CFT073 Δlpp (setting [4]) it was 31.3 µM (≈ 44.7 µg/mL); with MG1655 Δlpp + EDTA (setting [5]) it was 3.1 µM; in the test on MG1655 Δlpp (setting [6]), 31.3 µM (≈ 44.7 µg/mL); in the test on P. aeruginosa PA14, over 100 µM. Besides, the MIC in test [1] stood at 3.1 µM (≈ 4.43 µg/mL); in the test with S. aureus USA300 (setting [7]), 6.3 µM (≈ 9 µg/mL); with A. baumannii 19606, 37.5 µM (≈ 53.6 µg/mL); with PA14 + EDTA it was 6.3 µM (≈ 9 µg/mL).

Consider `CCCCCC[C@H]1OC(=O)CNC(=O)[C@H]([C@H](C)O)NC(=O)[C@H](CO)NC(=O)[C@H]([C@H](C)CC)NC(=O)[C@H](CC(C)C)N(C)C(=O)[C@@H]1C` [Globomycin], for which the MIC was determined as 0.8 µM (≈ 0.525 µg/mL) in the test with MG1655 + EDTA; 0.5 µM (≈ 0.328 µg/mL) with CFT073 imp4213; 1.1 µM (≈ 0.721 µg/mL) in the test on CFT073 + EDTA; 29.2 µM (≈ 19.2 µg/mL) in the test on CFT073 (read-out: MIC); 11.5 µM (≈ 7.54 µg/mL) in the test on CFT073 imp4213 Δlpp (setting [2]); 4.7 µM in the test with CFT073 Δlpp + EDTA (setting [3]). Further, the MIC with MG1655 (read-out: MIC) was 25 µM (≈ 16.4 µg/mL); against CFT073 Δlpp (setting [4]), over 100 µM; in the test on MG1655 Δlpp + EDTA (setting [5]), 12.5 µM; in the test with MG1655 Δlpp (setting [6]) it was 50 µM (≈ 32.8 µg/mL); against P. aeruginosa PA14, over 100 µM; in test [1] it was 0.6 µM (≈ 0.394 µg/mL). The figures for the MIC in the test on S. aureus USA300 (setting [7]), in the test on A. baumannii 19606 and in the test on PA14 + EDTA were over 100 µM, 25 µM (≈ 16.4 µg/mL) and 50 µM (≈ 32.8 µg/mL), respectively. Moreover, the “effect of lpp deletion on growth inhibition, CFT073, in words” value with CFT073 Δlpp (CFT073 Δlpp versus WT) was “resistant”. In the test on MG1655 Δlpp (MG1655 Δlpp versus WT), the “effect of lpp deletion on growth inhibition, MG1655, in words” value is reported as “resistant”.

Regarding `CN[C@H](CC(C)C)C(=O)N[C@H]1C(=O)N[C@@H](CC(N)=O)C(=O)N[C@H]2C(=O)N[C@H]3C(=O)N[C@H](C(=O)N[C@H](C(=O)O)c4cc(O)cc(O)c4-c4cc3ccc4O)[C@H](O)c3ccc(c(Cl)c3)Oc3cc2cc(c3O[C@@H]2O[C@H](CO)[C@@H](O)[C@H](O)[C@H]2O[C@H]2C[C@](C)(N)[C@H](O)[C@H](C)O2)Oc2ccc(cc2Cl)[C@H]1O` [Vancomycin], the MIC was 3.1 µM (≈ 4.49 µg/mL) in the test with MG1655 + EDTA (Escherichia coli); 0.6 µM (≈ 0.87 µg/mL) in the test on CFT073 imp4213 (Escherichia coli); 0.8 µM (≈ 1.16 µg/mL) in the test with CFT073 + EDTA (Escherichia coli); over 100 µM in the test on CFT073 (setting [8]); 0.7 µM (≈ 1.01 µg/mL) against CFT073 imp4213 Δlpp (Escherichia coli); 0.8 µM (≈ 1.16 µg/mL) in the test on CFT073 Δlpp + EDTA (Escherichia coli). The MIC is over 100 µM in the test with MG1655 (setting [8]); over 100 µM in the test on CFT073 Δlpp (Escherichia coli); 0.8 µM (≈ 1.16 µg/mL) in the test with MG1655 Δlpp + EDTA (Escherichia coli, MG1655); over 100 µM against MG1655 Δlpp (Escherichia coli, MG1655); over 100 µM in the test on P. aeruginosa PA14 (Pseudomonas aeruginosa); 0.2 µM (≈ 0.29 µg/mL) in test [1] (Acinetobacter baumannii). Moreover, the MIC was 0.4 µM (≈ 0.58 µg/mL) in the test with S. aureus USA300 (Staphylococcus aureus, USA300); over 100 µM against A. baumannii 19606 (Acinetobacter baumannii); 6.3 µM (≈ 9.13 µg/mL) in the test with PA14 + EDTA (Pseudomonas aeruginosa).
